Results reported in patent publication US5616123A, “Delivery of solid drug compositions” (Delab, priority 1995, dated 1997).

Key:
[1] = cited from earlier work; for solubility: in words
[2] = plasma levels of BN 50730 after subcutaneous injection (FIGS. 13, 14); type: in vivo, rabbits
Experimental: These cylinders were injected subcutaneously into rabbits at a dosage of 2.0 mg/kg for a comparison study with BN 50730 mixed with propylene glycol. […] This 10 ng/ml is a sufficient concentration for a pharmacological effect.

Compound | solubility [1] | water solubility [1] | sufficient concentration for a pharmacological effect ([2]; plasma concentration) [ng/ml] | effect in plasma (onset) ([2]; solid formulation, subcutaneous, rabbits, 2.0 mg/kg)
CCCCNc1ccc(C(=O)OCCN(C)C)cc1 [tetracaine] | soluble |  |  | 
bovine pancreas insulin [BPI] |  | water insoluble |  | 
COc1ccc(NC(=S)N2CCc3c(sc4c3C(c3ccccc3Cl)=NCc3nnc(C)n3-4)C2)cc1 [BN 50730, 4,7,8,10-tetrahydro-1-methyl-6-(2-chlorphenyl)-9-(4-methoxyphenyl-thiocarbamoyl)-pyrrido-[4',3'-4,5]thieno[3,2-f]-1,2,4-triazolo[4,3-a]1,4-diazepine] | insoluble |  | 10 | immediate effect in plasma
Recombinant human insulin [RHI] |  | water soluble |  | 
